Source: patent US7335645B2, “Effectors of dipeptidyl peptidase IV for topical use” (Probiodrug AG, priority 1999, dated 2008)
Counter-ions that a name gives are not always drawn. Each block holds one compound with its values, some of them ahead of it.

Columns and labels:
[1] = literature statement (Reinhold et al., 1998); cited from earlier work
[2] = biological target: T1, plasma-DP IV (Rattus norvegicus, UniProt P14740); experiment: Inhibition of plasma-DP IV after oral administration in healthy Wistar rats; format: in vivo; details: 5 μmol/300 g rat
T1 construct: from tissue; host or cells: plasma of Wistar rats after oral dosing
T1 sequence (P14740 38-767 limits assumed): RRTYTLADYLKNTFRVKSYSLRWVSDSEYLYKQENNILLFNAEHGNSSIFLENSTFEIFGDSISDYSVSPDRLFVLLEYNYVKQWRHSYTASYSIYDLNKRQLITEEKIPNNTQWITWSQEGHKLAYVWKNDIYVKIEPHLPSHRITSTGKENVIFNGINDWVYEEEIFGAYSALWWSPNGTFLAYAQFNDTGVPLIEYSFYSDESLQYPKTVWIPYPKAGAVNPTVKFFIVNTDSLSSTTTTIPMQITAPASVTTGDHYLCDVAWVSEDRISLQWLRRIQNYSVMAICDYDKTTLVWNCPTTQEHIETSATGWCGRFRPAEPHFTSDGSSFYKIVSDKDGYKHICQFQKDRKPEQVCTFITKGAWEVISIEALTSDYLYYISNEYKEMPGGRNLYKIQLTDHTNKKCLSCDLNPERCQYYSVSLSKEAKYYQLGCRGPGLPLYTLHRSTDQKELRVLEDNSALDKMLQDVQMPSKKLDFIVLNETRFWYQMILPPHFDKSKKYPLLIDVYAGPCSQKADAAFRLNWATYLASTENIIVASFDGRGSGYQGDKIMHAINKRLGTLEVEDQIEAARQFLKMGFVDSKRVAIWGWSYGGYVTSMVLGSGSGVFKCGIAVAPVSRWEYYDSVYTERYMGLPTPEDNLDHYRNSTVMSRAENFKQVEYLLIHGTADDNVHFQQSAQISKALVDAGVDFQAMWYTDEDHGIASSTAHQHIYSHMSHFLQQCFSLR
Protocol: FIG. 1: Systemic action of orally administered DP IV-inhibitors in healthy Wistar rats.
The course, over time, of the percentage inhibition of plasma-DP IV activity following oral administration of 5 μmol of inhibitor per 300 g of rat (n=2) is shown.
The inhibition of plasma-DP IV (systemic action) was investigated following oral administration of side chain-modified DP IV-inhibitors ([…]) compared with unmodified inhibitors in healthy Wistar rats.

[3] = biological target: T2, PepT1 (Oryctolagus cuniculus, UniProt P36836); experiment: Inhibition of 3H-D-Phe-Ala binding to PepT1-expressing P. pastoris cells; details: read-out: EC50: effective concentration inhibiting the binding of 3H-D-Phe-Ala to PepT1-expressing P. pastoris cells by 50%
T2 construct: expressed in transfected cells
T2 sequence (P36836 1-707): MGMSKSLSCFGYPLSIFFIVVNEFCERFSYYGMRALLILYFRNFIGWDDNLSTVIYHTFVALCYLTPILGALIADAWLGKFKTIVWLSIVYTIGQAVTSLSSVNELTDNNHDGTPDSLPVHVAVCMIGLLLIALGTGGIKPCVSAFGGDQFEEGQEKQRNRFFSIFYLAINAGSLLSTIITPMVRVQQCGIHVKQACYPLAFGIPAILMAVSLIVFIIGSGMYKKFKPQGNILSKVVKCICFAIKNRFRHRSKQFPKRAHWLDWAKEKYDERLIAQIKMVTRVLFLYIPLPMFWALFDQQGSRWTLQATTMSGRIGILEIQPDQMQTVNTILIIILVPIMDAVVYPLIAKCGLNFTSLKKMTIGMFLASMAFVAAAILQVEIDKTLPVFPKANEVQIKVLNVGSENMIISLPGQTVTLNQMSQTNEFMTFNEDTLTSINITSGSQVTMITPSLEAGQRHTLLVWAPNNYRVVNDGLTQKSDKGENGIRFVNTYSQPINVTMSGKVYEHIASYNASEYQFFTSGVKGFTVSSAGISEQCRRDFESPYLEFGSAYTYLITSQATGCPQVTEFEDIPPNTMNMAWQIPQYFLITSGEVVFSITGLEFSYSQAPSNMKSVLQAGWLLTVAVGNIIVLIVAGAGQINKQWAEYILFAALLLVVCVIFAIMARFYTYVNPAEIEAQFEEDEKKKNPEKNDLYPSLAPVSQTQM
Protocol: (§1) Side chain-modified glutamylthiazolidines having a structure H-Glu(X)-Thia were synthesized, with polyethylene glycol or glycine oligomers of various chain lengths being used as X (see Method A for description of synthesis). The binding characteristics of those derivatives and their transportability by the peptide transporter PepT1 were investigated and the Ki values with respect to DP IV were determined (Table 1).

[4] = tested on: PepT1; experiment: Transport at PepT1-expressing X. leavis oocytes, two-electrode voltage clamp method; format: cell-based; parameters: unit not given here; details: PepT1-expressing oocytes of X. leavis, n.d. = not detectable
Protocol: as §1

Compound: N[C@@H](CCCCNC(=O)OCc1ccc([N+](=O)[O-])cc1)C(=O)N1CCSC1 [Lys(Z-NO2)-Thia]
Transport of the inhibitor [1]: transported completely

Compound: N[C@@H](CCC(=O)NCC(=O)NCC(=O)NCC(=O)NCC(=O)NCC(=O)O)C(=O)N1CCSC1 [H-Glu(Gly5)-Thia]
Systemic action (inhibition of plasma-DP IV) after oral administration [2]: no systemic action of the orally administered active ingredient is detectable

Compound: H-Glu(PEG)-Thia
EC50 [3]: > 10 mM

Imax: inward currents generated by the transport [4]: 35 ± 13
EC50 [3]: 1.1 mM
Compound: NC(CCC(=O)O)C(=O)N1CCSC1 (stereo not drawn) [H-Glu-Thia]

melting point: 91 to 94 °C
Compound: N[C@@H](CCC(=O)NCC(=O)NCC(=O)NCC(=O)O)C(=O)N1CCSC1 (as salt: trifluoroacetate) [H-Glu(Gly3)-Thia]

Compound: N[C@@H](CCC(=O)NCC(=O)O)C(=O)N1CCSC1 [Glu(Gly)-Thia]
Transport of the inhibitor [1]: transported completely

Imax: inward currents generated by the transport [4]: 42 ± 11
EC50 [3]: 3.18 mM
Compound: H-Gly(NHOH)-Thia
